Entries after “also recorded” stand apart in the source; their conditions may differ.
Tested on: IFNE1 mRNA in HCT116 cells
Assay: QRT-PCR of IFNE1 transcript level in HCT116 cells treated with CDK and non-CDK inhibitors
Format: cell-based, human
Details: 6 hours, P276-00 250 nM, Flavopiridol 200 nM, Fascaplysin 500 nM, Roscovitine 20 μM, Olomoucine 180 μM, DRB 50 μM, 5-Fluorouracil 800 nM, Camptothecin 30 nM, Etoposide 3 μM, Vinblastin 1.5 μM, Quercitin 750 nM, Paclitaxel 600 nM, Doxorubicin 100 nM
Procedure: HCT116 cells were treated with various CDK inhibitors [P276-00 (250 nM), Flavopiridol (200 nM), Fascaplysin (500 nM), Roscovitine (20 μM), Olomoucine (180 μM), 5,6-dichloro-1-beta-D-ribofuranosylbenzimidazole (DRB, 50 μM)] and non-CDK inhibitors [5-Fluorouracil (800 nM), Camptothecin (30 nM), Etoposide (3 μM), Vinblastin (1.5 μM), Quercitin (750 nM), Paclitaxel (600 nM), Doxorubicin (100 nM)] for 6 hours. The level of IFNE1 mRNA was estimated using Real Time RT-PCR. Using Actin gene for normalization, relative IFNE1 expression level was plotted as log fold change.
To study if IFNE1 expression is a result of CDK inhibition, HCT116 cells were treated with a variety of CDK and non-CDK inhibitors and IFNE1 transcript level were measured using quantitative QRT-PCR. HCT116 cells were chosen for this assay because IFNE1 level seems to be most regulated in this cell line. The cells were treated with a variety of CDK inhibitors [P276-00 (250 nM), Flavopiridol (200 nM), Fascaplysin (500 nM), Roscovitine (20 μM), Olomoucine (180 μM), 5,6-dichloro-1-beta-D-ribofuranosylbenzimidazole (DRB) (50 μM)] and non-CDK inhibitors [5-Fluorouracil (800 nM), Camptothecin (30 nM), Etoposide (3 μM), Vinblastin (1.5 μM), Quercitin (750 nM), Paclitaxel (600 nM), Doxorubicin (100 nM)] for 6 hours and the IFNE1 transcript level were estimated. All inhibitors were purchased from Sigma and used at IC50 values described in literature.

SMILES	change of IFNE1 mRNA level
CC[C@@]1(O)C(=O)OCc2c1cc1n(c2=O)Cc2cc3ccccc3nc2-1 [Camptothecin]	do not cause a change
CC[C@]1(O)C[C@@H]2CN(CCc3c([nH]c4ccccc34)[C@@](C(=O)OC)(c3cc4c(cc3OC)N(C)[C@H]3[C@@](O)(C(=O)OC)[C@H](OC(C)=O)[C@]5(CC)C=CCN6CC[C@]43[C@@H]65)C2)C1 [Vinblastin]	do not cause a change
COc1cccc2c1C(=O)c1c(O)c3c(c(O)c1C2=O)C[C@@](O)(C(=O)CO)C[C@@H]3O[C@H]1C[C@H](N)[C@H](O)[C@H](C)O1 [Doxorubicin]	do not cause a change
O=c1[nH]cc(F)c(=O)[nH]1 [5-Fluorouracil]	do not cause a change
CC(=O)O[C@H]1C(=O)[C@@]2(C)[C@H]([C@H](OC(=O)c3ccccc3)[C@]3(O)C[C@H](OC(=O)[C@H](O)[C@@H](NC(=O)c4ccccc4)c4ccccc4)C(C)=C1C3(C)C)[C@]1(OC(C)=O)CO[C@@H]1C[C@@H]2O [Paclitaxel]	do not cause a change
COc1cc([C@@H]2c3cc4c(cc3[C@@H](O[C@@H]3O[C@@H]5CO[C@@H](C)O[C@H]5[C@H](O)[C@H]3O)[C@H]3COC(=O)[C@H]23)OCO4)cc(OC)c1O [Etoposide]	do not cause a change
OC[C@H]1O[C@@H](n2cnc3cc(Cl)c(Cl)cc32)[C@H](O)[C@@H]1O [DRB, 5,6-dichloro-1-beta-D-ribofuranosylbenzimidazole]	upregulation
O=C1c2ccccc2-[n+]2ccc3c([nH]c4ccccc43)c21 [Fascaplysin]	upregulation
O=c1c(O)c(-c2ccc(O)c(O)c2)oc2cc(O)cc(O)c12 [Quercitin]	do not cause a change
CC[C@H](CO)Nc1nc(NCc2ccccc2)c2ncn(C(C)C)c2n1 [Roscovitine]	upregulation; also recorded: potentiated IFNE1 level maximally

From patent US20110151469A1, “INTERFERON EPSILON (IFNE1) AS A MARKER FOR TARGETED CANCER THERAPY” (PIRAMAL LIFE SCIENCES LIMITED, priority 2008, published 2011)
